Molecules are shown by their SMILES.

The target in data set [1] is T1, DHFR partially purified from rat liver (Rattus norvegicus, UniProt Q920D2).
T1 construct: DHFR partially purified from rat liver; from tissue; host or cells: rat liver
T1 sequence (Q920D2 1-187): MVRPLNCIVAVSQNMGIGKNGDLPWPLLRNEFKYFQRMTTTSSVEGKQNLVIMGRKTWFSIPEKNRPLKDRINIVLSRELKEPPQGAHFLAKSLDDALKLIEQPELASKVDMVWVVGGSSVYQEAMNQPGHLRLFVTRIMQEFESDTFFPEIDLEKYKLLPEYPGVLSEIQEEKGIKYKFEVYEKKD
Briefly: Inhibition of mammalian dihydrofolate reductase (DHFR). The format is biochemical. As for the experimental part: The inhibitory effect of the test compounds against DHFR partially purified from rat liver was determined.

Data set [2] concerns the target Histamine N-methyl-transferase ( HMT ) (Homo sapiens, UniProt P50135). Kind of data set: Inhibition of histamine N-methyltransferase (HMT). The format is biochemical. The note with it: read-out: % inhibition of HMT at 10^-5M. As for the experimental part: EXAMPLE 4 Inhibition of Histamine N-methyl-transferase ( HMT ) by 2,4-Diamino-6-benzylpyrido(2,3-d)pyrimidine
The effect of the test compounds used in Example 3 against HMT was determined. An inhibition of less than 20% was considered acceptable and the lack of any effect on this enzyme is most desirable since any interference with histamine metabolism should be minimized.

A further data set concerns Solid Walker 256 tumors. Briefly: Antitumor effect on subcutaneously implanted Walker 256 tumors in rats. The format is in vivo. The settings on record: for mean tumor volume as % of the untreated group: after 17 days. How it is done:
Solid Walker 256 tumors were implanted subcutaneously into three groups of rats. On the third day after implantation with the tumors drug treatment was commenced and continued for 5 successive days. One group of rats was treated with 2,4-diamino-6-(2,5-dimethoxybenzyl)-5-methylpyrido(2,3-d) pyrimidine at a dose of 25mg/kg q.i.d., a second group was treated with the same compound at 15 mg/kg b.i.d.; the third group were left untreated as controls.
In a second study tumors were implanted subcutaneously and drug treatment delayed until 10 days after implantation. Drug treatment consisted of 30 mg/kg q.i.d. on days 10-13 and 50 mg/kg on days 20, 24 and 28 after tumor implantation. Mean tumor volumes were measured during the course of this study. […] Twenty-three days after tumor implantation T/C was 0.03.

The next data set has as its system Leukemia P388 cells. Briefly: Antileukemic effect on intraperitoneally inoculated P388 leukemia in mice. The note with it: for % increases in life span: mice; for antileukemic activity: mice, 22, 33.5, 50 and 75 mg/kg, same schedule (twice daily for three days). The format is in vivo, CDF, Charles River female mice. From the text: Leukemia P388 cells were inoculated intraperitoneally in CDF, Charles River female mice, each animal receiving 10^6 cells. On the second day after implantation with the leukemic cells, drug treatment was commenced and continued twice daily for three days.

Data set [3] in a line: Acute toxicity in mice (i.p.). The note with it: mouse, in vivo, ip. How it is done: The acute toxicity of the title compounds was determined in mice ( i.p. ). The following results were obtained:-

Sequence of Histamine N-methyl-transferase ( HMT ) (P50135 whole entry, species assumed): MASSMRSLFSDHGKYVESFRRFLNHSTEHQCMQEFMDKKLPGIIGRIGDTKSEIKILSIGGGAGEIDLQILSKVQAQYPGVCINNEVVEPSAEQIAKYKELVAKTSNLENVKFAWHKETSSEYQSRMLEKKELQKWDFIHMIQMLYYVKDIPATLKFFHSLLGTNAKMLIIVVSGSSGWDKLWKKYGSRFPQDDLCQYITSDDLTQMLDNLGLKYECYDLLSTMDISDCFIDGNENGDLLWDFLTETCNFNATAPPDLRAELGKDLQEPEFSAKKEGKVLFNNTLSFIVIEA

Broadly, the IC50 is the concentration that gives 50% inhibition. In general, inhibition refers to the change of the read-out against control, counted positive when it falls. Compound `Nc1nc(N)c2cc(Cc3ccccc3)cnc2n1` yielded an IC50 in data set [1] of 250 nM. Further, the inhibition at 10 µM in data set [2] stood at 48%.

The term LD50 denotes the dose expected to kill half of the subjects tested. With `COc1ccc(OC)c(Cc2cnc3nc(N)nc(N)c3c2C)c1` [2,4-Diamino-5-methyl-6-(2,5-dimethoxybenzyl)pyrido-(2,3-d)pyrimidine)], the “mean tumor volume as % of the untreated group” value in the data set with Solid Walker 256 tumors (15 mg/kg b.i.d. for 5 successive days from third day after implantation) stood at 10%; in the data set with Solid Walker 256 tumors (25mg/kg q.i.d. for 5 successive days from third day after implantation), 29%. Further, the “mean tumor volume during the period of observation” value in the data set on Solid Walker 256 tumors (second study, 30 mg/kg q.i.d. on days 10-13 and 50 mg/kg on days 20, 24 and 28) is listed as “decrease in mean tumor volume”. In the data set on Solid Walker 256 tumors (second study, 30 mg/kg q.i.d. on days 10-13 and 50 mg/kg on days 20, 24 and 28, twenty-three days after tumor implantation), this compound registered a T/C of 0.03. Further, the “% increases in life span” value in the data set on Leukemia P388 cells (22 mg/kg twice daily for three days from second day) is 145%; with Leukemia P388 cells (33.5 mg/kg twice daily for three days from second day), 159%; with Leukemia P388 cells (50 mg/kg twice daily for three days from second day), 140%; in the data set on Leukemia P388 cells (75 mg/kg twice daily for three days from second day), 154%. Further, in the data set on Leukemia P388 cells (mice, 22, 33.5, 50 and 75 mg/kg twice daily for three days), the drug-related toxicity result is listed as “no evidence of drug-related toxicity”. This compound gave an LD50 in data set [3] of about 500 mg/kg.

Turning to `COc1ccc(Cc2cnc3nc(N)nc(N)c3c2C)cc1`, the antileukemic activity entry in the data set with Leukemia P388 cells was “inactive at all doses”.

For the compound `COc1ccc(OC)c(Cc2cnc3nc(N)nc(N)c3c2C)c1` [the 1st table, row 11], in data set [2], the inhibition at 10 µM was 11%.

With `COc1ccc(Cc2cnc3nc(N)nc(N)c3c2C)cc1` [the 1st table, row 8], in data set [1], it took 53 nM to reach half-maximal inhibition (IC50). Besides, the inhibition at 10 µM in data set [2] was determined as 20%.

As for `Cc1c(Cc2ccccc2Cl)cnc2nc(N)nc(N)c12` [the 1st table, row 5], in data set [1], the IC50 stood at 16 nM. For the same compound, in data set [2], the inhibition at 10 µM was 59%.

In data set [1], `Cc1c(Cc2ccccc2)cnc2nc(N)nc(N)c12` [-CH2 Ph] registered an IC50 of 40 nM. Also, in data set [2], the inhibition at 10 µM was 51%.

Consider `CCc1ccc(Cc2cnc3nc(N)nc(N)c3c2C)cc1`, for which the IC50 in data set [1] worked out at 90 nM. For the same compound, the inhibition at 10 µM in data set [2] was determined as 55%.

With `Cc1ccc(Cc2cnc3nc(N)nc(N)c3c2C)cc1`, in data set [1], it took 27 nM to reach half-maximal inhibition (IC50).

For `COc1ccccc1Cc1cnc2nc(N)nc(N)c2c1C`, the IC50 in data set [1] worked out at 50 nM. Also, the inhibition at 10 µM in data set [2] is 18%.

In the case of `COc1ccc(Cc2cnc3nc(N)nc(N)c3c2C)cc1OC`, the IC50 in data set [1] turned out to be 7.8 nM. Also, the inhibition at 10 µM in data set [2] was determined as 19%.

Consider `Cc1c(Cc2ccccc2Cl)cnc2nc(N)nc(N)c12` [2-chlorobenzyl compound], for which the antileukemic activity result in the data set on Leukemia P388 cells is listed as “only marginal or slight activity”.

For the origin of these results see patent EP0021292A1, “Alkoxybenzylpyridopyrimidines, methods for their preparation and pharmaceutical formulations thereof” (THE WELLCOME FOUNDATION LIMITED, priority 1979, dated 1981).
